In patent US20260108546A1 (ELI LILLY AND COMPANY, priority 2024, published 2026):

Biological target: T1, hGIP-R (Homo sapiens, UniProt P48546)
T1 construct: expressed in transfected cells; host or cells: HEK-293 clonal cell lines
T1 sequence (P48546 22-466): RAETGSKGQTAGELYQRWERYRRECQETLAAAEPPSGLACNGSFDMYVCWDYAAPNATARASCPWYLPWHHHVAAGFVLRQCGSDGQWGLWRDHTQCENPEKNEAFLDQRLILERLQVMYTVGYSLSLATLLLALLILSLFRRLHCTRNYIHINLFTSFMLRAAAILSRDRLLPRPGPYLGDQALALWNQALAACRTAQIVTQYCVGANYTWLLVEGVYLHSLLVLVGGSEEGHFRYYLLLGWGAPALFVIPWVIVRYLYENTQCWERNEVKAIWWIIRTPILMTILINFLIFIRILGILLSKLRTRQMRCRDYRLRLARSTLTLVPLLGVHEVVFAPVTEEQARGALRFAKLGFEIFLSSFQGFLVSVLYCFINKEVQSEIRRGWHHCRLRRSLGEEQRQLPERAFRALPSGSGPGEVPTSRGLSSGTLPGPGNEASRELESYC
Experiment: Functional hGIP-R Assay (cAMP formation, HTRF)
Assay type: cell-based
Conditions: for Emax: cAMP efficacy, percent of maximal response to GIP(1-42)OH, 37° C., 0.1% bovine casein, arithmetic mean ± SEM; for EC50: cAMP potency, HEK-293 cells expressing hGIP-R, incubated at 37° C. in the presence of 0.1% bovine casein, geometric mean, read-out: Human GIP-R EC50, nM (SEM, n)
Method in brief: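 Relative EC50 and Emax came from four-parameter logistic fits of cAMP as a percent of the human GIP (1-42) OH maximal response. The cAMP was measured by competitive HTRF after 30 min, 37 °C compound exposure of hGIP-R HEK-293 clones in IBMX (250 μM)-containing medium.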

SMILES | Emax [%] | EC50 [nM]
Cc1cn2cc(-c3ccc([C@H]4C[C@@]45CCN([C@H](Cc4cnn(C(F)F)c4)C(=O)NC(C)(C)Cn4nc(C(F)(F)F)cc4-c4cc(F)c(=O)n(C)c4)C5=O)c(F)c3)cnc2n1 [Example 100, (2R)-3-(1-(Difluoromethyl)-1H-pyrazol-4-yl)-N-(1-(5-(5-fluoro-1-methyl-6-oxo-1,6-dihydropyridin-3-yl)-3-(trifluoromethyl)-1H-pyrazol-1-yl)-2-methylpropan-2-yl)-2-((1S,3R)-1-(2-fluoro-4-(2-methylimidazo[1,2-a]pyrimidin-6-yl)phenyl)-4-oxo-5-azaspiro[2.4]heptan-5-yl)propanamide] | 70.9 ± 1.67 | 3.47
Cn1cc2cc(-c3ccc([C@H]4C[C@@]45CCN([C@H](Cc4cnn(C(F)F)c4)C(=O)NC(C)(C)Cn4nc(C(F)(F)F)cc4-c4ccc(=O)n(C)c4)C5=O)c(F)c3)cnc2n1 [Example 117, (2R)-3-(1-(Difluoromethyl)-1H-pyrazol-4-yl)-2-((1S,3R)-1-(2-fluoro-4-(2-methyl-2H-pyrazolo[3,4-b]pyridin-5-yl)phenyl)-4-oxo-5-azaspiro[2.4]heptan-5-yl)-N-(2-methyl-1-(5-(1-methyl-6-oxo-1,6-dihydropyridin-3-yl)-3-(trifluoromethyl)-1H-pyrazol-1-yl)propan-2-yl)propanamide] | 56 ± 3.91 | 4.39
[2H]C([2H])([2H])n1cc(-c2cc(C(F)(F)F)nn2CC(C)(C)NC(=O)[C@@H](Cc2cnn(C(F)F)c2)N2CC[C@@]3(C[C@@H]3c3ccc(-c4cnc5nn(C)cc5c4)cc3)C2=O)ccc1=O [Example 120, (R)-3-(1-(Difluoromethyl)-1H-pyrazol-4-yl)-N-(2-methyl-1-(5-(1-(methyl-d3)-6-oxo-1,6-dihydropyridin-3-yl)-3-(trifluoromethyl)-1H-pyrazol-1-yl)propan-2-yl)-2-((1R,3R)-1-(4-(2-methyl-2H-pyrazolo[3,4-b]pyridin-5-yl)phenyl)-4-oxo-5-azaspiro[2.4]heptan-5-yl)propanamide] | 72.4 ± 2.16 | 33.5
Cn1cc2cc(-c3ccc([C@H]4C[C@@]45CCN([C@H](Cc4cnn(C(F)F)c4)C(=O)NC(C)(C)Cn4nc(C(F)(F)F)cc4-c4ccc(OC(F)F)nn4)C5=O)cc3)cnc2n1 [Example 121, (R)-N-(1-(5-(6-(Difluoromethoxy)pyridazin-3-yl)-3-(trifluoromethyl)-1H-pyrazol-1-yl)-2-methylpropan-2-yl)-3-(1-(difluoromethyl)-1H-pyrazol-4-yl)-2-((1R,3R)-1-(4-(2-methyl-2H-pyrazolo[3,4-b]pyridin-5-yl)phenyl)-4-oxo-5-azaspiro[2.4]heptan-5-yl)propanamide] | 74.6 ± 1.47 | 107
Cc1nc(C2CC2)nc(O)c1-c1cc(C(F)(F)F)nn1CC(C)(C)NC(=O)[C@@H](Cc1cnn(C(F)F)c1)N1CC[C@@]2(C[C@@H]2c2ccc(-c3cnc4nn(C)cc4c3)cc2)C1=O [Example 122, (R)-N-(1-(5-(2-Cyclopropyl-4-hydroxy-6-methylpyrimidin-5-yl)-3-(trifluoromethyl)-1H-pyrazol-1-yl)-2-methylpropan-2-yl)-3-(1-(difluoromethyl)-1H-pyrazol-4-yl)-2-((1R,3R)-1-(4-(2-methyl-2H-pyrazolo[3,4-b]pyridin-5-yl)phenyl)-4-oxo-5-azaspiro[2.4]heptan-5-yl)propanamide] | 90.8 ± 7.25 | 103
Cn1cc2cc(-c3ccc([C@H]4C[C@@]45CCN([C@H](Cc4cnn(C(F)F)c4)C(=O)NC(C)(C)Cn4nc(C(F)(F)F)cc4-c4cc(F)c(CO)cc4F)C5=O)cc3)cnc2n1 [Example 124, (R)-N-(1-(5-(2,5-Difluoro-4-(hydroxymethyl)phenyl)-3-(trifluoromethyl)-1H-pyrazol-1-yl)-2-methylpropan-2-yl)-3-(1-(difluoromethyl)-1H-pyrazol-4-yl)-2-((1R,3R)-1-(4-(2-methyl-2H-pyrazolo[3,4-b]pyridin-5-yl)phenyl)-4-oxo-5-azaspiro[2.4]heptan-5-yl)propanamide] | 56.9 ± 11.2 | 55.6
Cc1c(-c2cc(C(F)(F)F)nn2CC(C)(C)NC(=O)[C@@H](Cc2cnn(C(F)F)c2)N2CC[C@@]3(C[C@@H]3c3ccc(-c4cnc5nn(C)cc5c4)cc3)C2=O)cn(C)c(=O)c1C#N [Example 128, (R)-N-(1-(5-(5-Cyano-1,4-dimethyl-6-oxo-1,6-dihydropyridin-3-yl)-3-(trifluoromethyl)-1H-pyrazol-1-yl)-2-methylpropan-2-yl)-3-(1-(difluoromethyl)-1H-pyrazol-4-yl)-2-((1R,3R)-1-(4-(2-methyl-2H-pyrazolo[3,4-b]pyridin-5-yl)phenyl)-4-oxo-5-azaspiro[2.4]heptan-5-yl)propanamide] | 85.2 ± 1.24 | 163

Other lines, results leading:

Emax [%] | EC50 [nM] | SMILES
95.7 ± 6.9 | 18.7 | Cn1cc2cc(-c3ccc([C@H]4C[C@@]45CCN([C@H](Cc4cnn(C(F)F)c4)C(=O)NC(C)(C)Cn4nc(C(F)(F)F)cc4-c4cccn(CC#N)c4=O)C5=O)cc3)cnc2n1 [Example 123, (R)-N-(1-(5-(1-(Cyanomethyl)-2-oxo-1,2-dihydropyridin-3-yl)-3-(trifluoromethyl)-1H-pyrazol-1-yl)-2-methylpropan-2-yl)-3-(1-(difluoromethyl)-1H-pyrazol-4-yl)-2-((1R,3R)-1-(4-(2-methyl-2H-pyrazolo[3,4-b]pyridin-5-yl)phenyl)-4-oxo-5-azaspiro[2.4]heptan-5-yl)propanamide]
68.5 ± 6.59 | 38.5 | Cn1cc2cc(-c3ccc([C@H]4C[C@@]45CCN([C@H](Cc4cnn(C(F)F)c4)C(=O)NC(C)(C)Cn4nc(C(F)(F)F)cc4-c4ccc(=O)n(CC(F)(F)F)c4)C5=O)cc3)cnc2n1 [Example 125, (R)-3-(1-(Difluoromethyl)-1H-pyrazol-4-yl)-N-(2-methyl-1-(5-(6-oxo-1-(2,2,2-trifluoroethyl)-1,6-dihydropyridin-3-yl)-3-(trifluoromethyl)-1H-pyrazol-1-yl)propan-2-yl)-2-((1R,3R)-1-(4-(2-methyl-2H-pyrazolo[3,4-b]pyridin-5-yl)phenyl)-4-oxo-5-azaspiro[2.4]heptan-5-yl)propanamide]
93.6 ± 1.06 | 42.3 | Cn1cc2cc(-c3ccc([C@H]4C[C@@]45CCN([C@H](Cc4cnn(C(F)F)c4)C(=O)NC(C)(C)Cn4nc(C(F)(F)F)cc4-c4cccn(CC(N)=O)c4=O)C5=O)cc3)cnc2n1 [Example 126, (R)-N-(1-(5-(1-(2-Amino-2-oxoethyl)-2-oxo-1,2-dihydropyridin-3-yl)-3-(trifluoromethyl)-1H-pyrazol-1-yl)-2-methylpropan-2-yl)-3-(1-(difluoromethyl)-1H-pyrazol-4-yl)-2-((1R,3R)-1-(4-(2-methyl-2H-pyrazolo[3,4-b]pyridin-5-yl)phenyl)-4-oxo-5-azaspiro[2.4]heptan-5-yl)propanamide]
56.1 ± 4.15 | 60.1 | CNC(=O)Cn1cc(-c2cc(C(F)(F)F)nn2CC(C)(C)NC(=O)[C@@H](Cc2cnn(C(F)F)c2)N2CC[C@@]3(C[C@@H]3c3ccc(-c4cnc5nn(C)cc5c4)cc3)C2=O)cn1 [Example 127, (R)-3-(1-(Difluoromethyl)-1H-pyrazol-4-yl)-N-(2-methyl-1-(1′-(2-(methylamino)-2-oxoethyl)-5-(trifluoromethyl)-1′H,2H-[3,4′-bipyrazol]-2-yl)propan-2-yl)-2-((1R,3R)-1-(4-(2-methyl-2H-pyrazolo[3,4-b]pyridin-5-yl)phenyl)-4-oxo-5-azaspiro[2.4]heptan-5-yl)propanamide]
